# Laboratory results published in patent US11505556B2, “Halogenated derivatives of morphinans and uses thereof” (Xalud Therapeutics, Inc., priority 2017, dated 2022).
# Legend:
# [1] = tested on: CCI neuropathic pain (mechanical allodynia); assay: Rat chronic constriction injury (CCI) neuropathic pain model, SC dosing, von Frey testing (Example 1); assay type: in vivo
# Method: Pathogen-free adult male Sprague-Dawley rats (300-375 g; Harlan Labs, Madison, Wis.) were used in all experiments. Rats were housed in temperature (23+/−3° C.) and light (12 hour:12 hour, light:dark cycle; lights on at 0700) controlled rooms with standard rodent chow and water available ad libitum.
# Chronic Constriction Injury (CCI) model: Neuropathic pain was induced using the CCI model of partial sciatic nerve injury (see, e.g., Bennett and Xie, […]). CCI was performed at the mid-thigh level of the left hindleg as previously described in Milligan, et al., Eur. J. Neuroscience, 20:2294-2302 (2004). In brief, four sterile chromic gut sutures (cuticular 4-0 chromic gut, FS-2; Ethicon, Somerville, N.J., USA) were loosely tied around the gently isolated sciatic nerve. Drug testing was delayed until 10-14 days after surgery to ensure that neuropathic pain was well established prior to the initiation of drug delivery.
# XT-203 CCI SC: Rats (10/group) were subjected to CCI neuropathic pain model surgery. After the pain state was established, they were dosed 3× per day for 5 days with XT-203 or a positive control (gabapentin) dose. Behavior testing for pain responses by von Frey testing was used to establish pain thresholds in the affected hind paw. Because dosage was 3×/day, behavior testing was performed after the first and second dose of day 1 dosing (1.1, 1.2) and after the first and second dose of day 5 dosing (5.1, 5.2). […]
# Von Frey Test for Mechanical Allodynia: Rats received at least three 60 min habituations to the test environment prior to behavioral testing. Response thresholds to calibrated light pressure stimuli applied to the plantar surface of the paws was measured using the von Frey test. […] Briefly, rats were first assessed for baseline response thresholds (average of three consecutive withdrawal assessments) from each paw at 15 min intervals, and the average response threshold from both feet was calculated. […] Allodynia was assessed pre- and post-drug delivery.
# [2] = tested on: CCI neuropathic pain (mechanical allodynia); assay: Rat CCI model, oral and subcutaneous phases (Study R042); assay type: in vivo
# Method: Rat chronic constriction injury model-Oral and subcutaneous (+)-NTX and XT-203: An efficacy study was conducted in the rat chronic constriction injury (CCI) model (Study R042). The study design comprised two phases. A five-day period of oral (PO) dosing and behavioral testing was followed by a five-day period of subcutaneous (SC) dosing, with a two-day washout period between these periods. Dosing on each day was performed three times a day (TID). Behavioral testing for mechanical allodynia was performed on the first and fifth days of dosing, at three times on those days: before the first dose of the day, 30 minutes after the first dose of the day, and 30 minutes after the second dose of the day. Thus, day 5 testing is designated as pre5.1 (before the first dose of the day), 5.1 (fifth day, after first dose) or 5.2 (fifth day, after second dose). On day 5 of the subcutaneous dosing phase, a second testing period was introduced 60 minutes after the second dose. (+)-NTX (6, 18, and 60 mg/kg) and XT-203. Mechanical allodynia was tested manually, using the Chaplan up-down testing method. The results are shown in FIGS. 10A and 10B, with the oral (PO) phase presented as the first pair of graphs. After the two-day washout, the subcutaneous (SC) phase was carried out with the results shown in the graphs at FIGS. 10C and 10D.
# The CCI model was well established in this study, with allodynic response thresholds between 2 and 3 grams (presurgical baseline thresholds at 15 g, not shown). […] This is especially remarkable given the extremely rapid metabolism and pharmacokinetics of (+)-NTX (see FIG. 9). Here, the dampening of efficacy due to lack of significant amounts of parent compound is particularly evident. Thus, the appropriate dose-ranging conditions in animal models should reflect (+)-NTX serum levels during efficacy testing, to match pharmacokinetics with pharmacodynamics. […] Efficacy is only observed after the first dose on day 5. Thus, changes designed to improve compound stability do provide improved efficacy.
# [3] = tested on: bone fracture pain, paw withdrawal threshold; assay: Mouse bone fracture model, intraperitoneal; assay type: in vivo; settings: for effect on PWT in mouse fracture pain model: IP, morphine 1, 2, 3, 5 mg/kg, XT-203 6, 10, 18, 30 mg/kg, (+)-NTX 6, 18, 30, 60 mg/kg, dose-dependent; for adverse effects during observation: mouse fracture model, all dose groups
# Source text: Each group had n=10 mice.
# [4] = tested on: surgical pain (paw incision), paw withdrawal threshold; assay: Mouse paw incision model, morphine potentiation
# Method: Manual testing with von Frey hairs was performed at the times indicated in the graphs. The animals were placed in individual Perspex boxes on a raised metal mesh for at least 40 min before the test. A series of graduated von Frey hairs (0.07, 0.16, 0.4, 0.6, and 1.0 g) were applied to the plantar surface of the left paw, in sequence. Each von Frey hair was applied 10 times on a one-sec-on-one-sec-off protocol, with each hair slightly bent. A paw withdrawal upon this hind-paw stimulation for a given von Frey hair registering 5 responses out of 10 trials was recorded the paw withdrawal threshold (PWT). A baseline PWT was determined each day for 3 days before surgery. […] In addition, the PWT was determined before dosing and 1, 2, and 4 hours after dosing.
# In both cases, morphine was dosed at 1 mg/kg IP.
# [5] = tested on: bone fracture pain, paw withdrawal threshold; assay: Mouse bone fracture model, morphine potentiation
# Source text: Male adult C57BL6 mice, 8-10 weeks old, were anaesthetized with isoflurane mixed with oxygen throughout the surgical procedure. Animals were placed on a thermo-blanket temperature control system. The left knee area was disinfected with povidone/iodine-soaked cotton. A 0.5 cm incision was made on the knee, exposing the front area of the knee. A 27-gauge sterile needle was inserted into the tibial bone medullar canal to secure the fractured bone. The left tibia bone was gently broken using a pair of cushioned pliers. A single dose of antibiotic (Amoxipen 100 mg/kg, IP) was administered for prevention of infection after surgery. The animal was placed in a temperature-controlled recovery chamber until fully awake before being placed in a plastic cage bedded with clean, soft sawdust, with food and water easily accessible. The condition of the animals was closely monitored and recorded. All compounds, dissolved in normal saline, were dosed intraperitoneally in a volume of 5 ml/kg. PWT testing, as described above, was performed at 1, 2, and 4 hours.
# In both cases, morphine was dosed at 2 mg/kg IP.
# [6] = tested on: Sodium channel site 2; assay: Off-target screening; assay type: binding
# Source text: In addition to the animal studies presented above in Examples 1-9, the results of in vitro testing of several of the compounds (i.e., XT-203, XT-204, and XT-206 through XT-217) are shown in Table 5 and Table 6. […]. Nine additional compounds had two or fewer off-target hits in the screening. […] These compounds spanned all of the tested N-modification classes. […]. Thus, the medicinal chemistry approach taken in this series of fluorinated compounds can yield low off-target activity and longer metabolic lifetime while preserving TLR4 antagonism. It is appreciated that further development of compounds in this class, using techniques known to those skilled in the art, may yield additional compounds with desirable pharmacologic and toxicologic characteristics.
SMILES,"effect on pain threshold (von Frey), data not shown ([1]; SC)","efficacy on mechanical allodynia, medium and high doses ([2]; (+)-NTX 18 and 60 mg/kg TID, PO d1, SC d1, SC d5 panels)",effect on PWT in mouse fracture pain model [3],adverse effects during observation [3],"PWT of the ipsilateral hind-paw, 2 hours post-dosing ([4]; (+)-NTX 18 mg/kg IP alone)","PWT of the ipsilateral hind-paw, 4 hours post-dosing ([4]; (+)-NTX 18 mg/kg IP alone)","PWT of the ipsilateral hind-paw, 1 hour post-dosing ([4]; (+)-NTX 18 mg/kg IP alone, baseline 0.11±0.015 g)",adverse effects during observation [5],"% Inhibition at 10 μM, Sodium channel site 2 ([6]; 10 µM)","% Inhibition at 10 μM, Sodium channel site 2 ([6]; listed as XT 203, 10 µM)","effect on pain threshold (von Frey), day 1 dosing ([1]; XT-203 19 mg/kg SC 3x per day, FIG. 5A)","effect on pain threshold (von Frey), day 5 testing ([1]; XT-203 19 mg/kg SC 3x per day, FIG. 5B)",reversal of allodynia at pre5.1 (before first dose of day 5) ([2]; XT-203 18 mg/kg SC TID),"efficacy on mechanical allodynia, subcutaneous, day 5 ([2]; XT-203 18 mg/kg SC TID, after the first dose on day 5)","PWT, 2 hours after dosing ([4]; XT-203 10 mg/kg IP alone)","PWT, 4 hours after dosing ([4]; XT-203 10 mg/kg IP alone)","PWT, 1 hour after dosing ([4]; XT-203 10 mg/kg IP alone, 0.11±0.015 g before dosing)"
"O=C1CC[C@]2(O)[C@@H]3Cc4ccc(O)c5c4[C@]2(CCN3CC2CC2)[C@@H]1O5 [(+)-naltrexone, reference compound]",not effective,some efficacy,increased the PWT,No significant adverse effects,0.22 ± 0.050 g,0.14 ± 0.32 g,0.31 ± 0.056 g,No significant adverse effects,–,–,–,–,–,–,–,–,–
COc1ccc2c3c1O[C@@H]1C(F)CCC4[C@H](C2)N(CC2CC2)CC[C@]341 (some centres unmarked) [XT-203],–,–,increased the PWT,No significant adverse effects,–,–,–,No significant adverse effects,64%,54%,minimal effect,substantial effect,does not show reversal of allodynia,some significant efficacy,0.25 ± 0.059 g,0.09 ± 0.012 g,0.32 ± 0.058 g
